Data as given in ChEMBL document CHEMBL1201862, “PubChem BioAssay data set” (2004).
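Cultured in 96-well plates, cells were exposed to test compound for 48 hours across five concentrations. GI50 marks 50% less growth.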 Activity calls are given as the source filed them. Rule as the data show it: active = GI50 up to about 1.1 µM and inactive = higher.

Key:
Assay in all cases: inhibition of tumour cell growth, NCI panel, 48 h
786-0 = test system: 786-0
A498 = test system: A498
A549 = test system: A549
ACHN = test system: ACHN
CAKI-1 = test system: CAKI-1
CCRF-CEM = test system: CCRF-CEM
COLO 205 = test system: COLO 205
DLD-1 = test system: DLD-1
DMS-114 = test system: DMS-114
DMS-273 = test system: DMS-273
EKVX = test system: EKVX
HCC 2998 = test system: HCC 2998
HCT-116 = test system: HCT-116
HCT-15 = test system: HCT-15
HL-60 = test system: HL-60
HOP-18 = test system: HOP-18
HOP-62 = test system: HOP-62
HOP-92 = test system: HOP-92
HT-29 = test system: HT-29
IGROV-1 = test system: IGROV-1
K562 = test system: K562
KM-20L2 = test system: KM-20L2
KM12 = test system: KM12
LOX IMVI = test system: LOX IMVI
LXFL 529 = test system: LXFL 529
M14 = test system: M14
M19-MEL = test system: M19-MEL
MOLT-4 = test system: MOLT-4
Malme-3M = test system: Malme-3M
NCI-H226 = test system: NCI-H226
NCI-H23 = test system: NCI-H23
NCI-H460 = test system: NCI-H460
OVCAR-3 = test system: OVCAR-3
OVCAR-4 = test system: OVCAR-4
OVCAR-5 = test system: OVCAR-5
OVCAR-8 = test system: OVCAR-8
RPMI-8226 = test system: RPMI-8226
RXF 393 = test system: RXF 393
SF-268 = test system: SF-268
SF-295 = test system: SF-295
SF-539 = test system: SF-539
SK-MEL-28 = test system: SK-MEL-28
SK-MEL-2 = test system: SK-MEL-2
SK-MEL-5 = test system: SK-MEL-5
SK-OV-3 = test system: SK-OV-3
SN12C = test system: SN12C
SNB-75 = test system: SNB-75
SNB-78 = test system: SNB-78
SR = test system: SR
SW-620 = test system: SW-620
TK-10 = test system: TK-10
U-251 = test system: U-251
UACC-257 = test system: UACC-257
UACC-62 = test system: UACC-62
UO-31 = test system: UO-31
XF498 = test system: XF498
NCI-H522 = test system: NCI-H522
SNB-19 = test system: SNB-19

COc1ccc(OC)c(/C(C)=N/NC(N)=S)c1
GI50 (786-0): > 100 µM (inactive)
GI50 (A498): > 100 µM (inactive)
GI50 (A549): > 100 µM (inactive)
GI50 (ACHN): > 100 µM (inactive)
GI50 (CAKI-1): > 100 µM (inactive)
GI50 (CCRF-CEM): > 100 µM (inactive)
GI50 (COLO 205): > 100 µM (inactive)
GI50 (DLD-1): > 100 µM (inactive)
GI50 (DMS-114): > 100 µM (inactive)
GI50 (DMS-273): > 100 µM (inactive)
GI50 (EKVX): > 100 µM (inactive)
GI50 (HCC 2998): > 100 µM (inactive)
GI50 (HCT-116): > 100 µM (inactive)
GI50 (HCT-15): > 100 µM
GI50 (HL-60): > 100 µM (inactive)
GI50 (HOP-18): > 100 µM (inactive)
GI50 (HOP-62): > 100 µM (inactive)
GI50 (HOP-92): > 100 µM (inactive)
GI50 (HT-29): > 100 µM (inactive)
GI50 (IGROV-1): > 100 µM (inactive)
GI50 (K562): > 100 µM (inactive)
GI50 (KM-20L2): > 100 µM (inactive)
GI50 (KM12): > 100 µM (inactive)
GI50 (LOX IMVI): > 100 µM (inactive)
GI50 (LXFL 529): > 100 µM (inactive)
GI50 (M14): > 100 µM (inactive)
GI50 (M19-MEL): > 100 µM (inactive)
GI50 (MOLT-4): 74.8 µM (inactive)
GI50 (Malme-3M): > 100 µM (inactive)
GI50 (NCI-H226): > 100 µM (inactive)
GI50 (NCI-H23): > 100 µM (inactive)
GI50 (NCI-H460): > 100 µM (inactive)
GI50 (OVCAR-3): > 100 µM (inactive)
GI50 (OVCAR-4): > 100 µM (inactive)
GI50 (OVCAR-5): > 100 µM (inactive)
GI50 (OVCAR-8): > 100 µM (inactive)
GI50 (RPMI-8226): > 100 µM (inactive)
GI50 (RXF 393): > 100 µM (inactive)
GI50 (SF-268): > 100 µM (inactive)
GI50 (SF-295): > 100 µM (inactive)
GI50 (SF-539): > 100 µM (inactive)
GI50 (SK-MEL-28): > 100 µM (inactive)
GI50 (SK-MEL-2): > 100 µM (inactive)
GI50 (SK-MEL-5): > 100 µM (inactive)
GI50 (SK-OV-3): > 100 µM (inactive)
GI50 (SN12C): > 100 µM (inactive)
GI50 (SNB-75): > 100 µM (inactive)
GI50 (SNB-78): > 100 µM (inactive)
GI50 (SR): > 100 µM (inactive)
GI50 (SW-620): > 100 µM (inactive)
GI50 (TK-10): > 100 µM (inactive)
GI50 (U-251): > 100 µM (inactive)
GI50 (UACC-257): > 100 µM (inactive)
GI50 (UACC-62): > 100 µM (inactive)
GI50 (UO-31): > 100 µM (inactive)
GI50 (XF498): > 100 µM (inactive)

Cn1c(=O)nc2n(-c3ccc(Cl)c(C(F)(F)F)c3)c3ccccc3nc-2c1=O
GI50 (786-0): 57 µM (inactive)
GI50 (A498): > 79.3 µM (inactive)
GI50 (A549): 25.8 µM (inactive)
GI50 (ACHN): 27.7 µM (inactive)
GI50 (CAKI-1): 51.4 µM (inactive)
GI50 (CCRF-CEM): 30.8 µM (inactive)
GI50 (COLO 205): 17.7 µM (inactive)
GI50 (DLD-1): 20.1 µM (inactive)
GI50 (DMS-114): 16.7 µM (inactive)
GI50 (DMS-273): 32.1 µM (inactive)
GI50 (EKVX): 35.1 µM (inactive)
GI50 (HCC 2998): 25.6 µM (inactive)
GI50 (HCT-116): 27.2 µM (inactive)
GI50 (HCT-15): 31.4 µM
GI50 (HL-60): 19.3 µM (inactive)
GI50 (HOP-18): > 100 µM (inactive)
GI50 (HOP-62): 57.9 µM (inactive)
GI50 (HOP-92): 40.8 µM (inactive)
GI50 (HT-29): 24.3 µM (inactive)
GI50 (IGROV-1): 84.1 µM (inactive)
GI50 (K562): 35.5 µM (inactive)
GI50 (KM-20L2): 25.1 µM (inactive)
GI50 (KM12): 32.9 µM (inactive)
GI50 (LOX IMVI): 35 µM (inactive)
GI50 (LXFL 529): 76.9 µM (inactive)
GI50 (M14): 26.1 µM (inactive)
GI50 (M19-MEL): 13.4 µM (inactive)
GI50 (MOLT-4): 36.7 µM (inactive)
GI50 (Malme-3M): 15 µM (inactive)
GI50 (NCI-H226): > 53.7 µM (inactive)
GI50 (NCI-H23): 29.6 µM (inactive)
GI50 (NCI-H460): 30.2 µM (inactive)
GI50 (NCI-H522): 25.1 µM (inactive)
GI50 (OVCAR-3): 14.7 µM (inactive)
GI50 (OVCAR-4): 22.2 µM (inactive)
GI50 (OVCAR-5): 74.3 µM (inactive)
GI50 (OVCAR-8): 24.9 µM (inactive)
GI50 (RPMI-8226): 33.2 µM (inactive)
GI50 (RXF 393): 55.7 µM (inactive)
GI50 (SF-268): 35.6 µM (inactive)
GI50 (SF-295): 44.2 µM (inactive)
GI50 (SF-539): 29 µM (inactive)
GI50 (SK-MEL-28): 65 µM (inactive)
GI50 (SK-MEL-2): 34.7 µM (inactive)
GI50 (SK-MEL-5): 13.5 µM (inactive)
GI50 (SK-OV-3): > 100 µM (inactive)
GI50 (SN12C): 30.9 µM (inactive)
GI50 (SNB-19): 21.9 µM (inactive)
GI50 (SNB-75): 94 µM (inactive)
GI50 (SNB-78): 53.6 µM (inactive)
GI50 (SW-620): 22.9 µM (inactive)
GI50 (TK-10): > 79.6 µM (inactive)
GI50 (U-251): 40.6 µM (inactive)
GI50 (UACC-257): 17.1 µM (inactive)
GI50 (UACC-62): 16.6 µM (inactive)
GI50 (UO-31): > 77.4 µM (inactive)
GI50 (XF498): 37.2 µM (inactive)
